Where two headings read alike, the source gives them in different places.
How the values were obtained:
Format in all cases: cell-based
MV-4-11 cells = assay: Inhibition of MV-4-11 cell proliferation (MTS, 7 days); details: Homo sapiens
Protocol: MV-4-11 cells were cultured in IMDM with 10% fetal bovine serum, collected, and diluted to the appropriate cell concentration for a 7-day treatment period. A 96-well plate was used, and 180 μL of cell suspension was added to each well, resulting in a cell count of 2,000 per well. For the control wells, 20 μL of DMSO at a final concentration of 0.2% was added. The compounds were diluted from a 10 mM stock solution in a five-fold gradient, and 20 μL was added to the compound wells (with a final DMSO concentration of 0.2%). The cells were incubated in a 37° C., 5% CO2 incubator for 7 days. After preparing the reaction solution using the MTS reagent kit (Promega, G5430), 20 μL was added to each well, and the cells were incubated in the incubator for 3-4 hours. The absorbance at 490 nm was measured using a microplate reader, with the absorbance at 690 nm as the background value. The final data was calculated as OD490-OD690. The inhibition rate of the compounds was calculated using the formula: […]
The IC50 values for proliferation inhibition were calculated using GraphPad Prism 5.0. The experiments were repeated three times, with three parallel experiments for each, and the mean and standard deviation were calculated.
The cell activity test results are shown in Table 3: A indicates IC50<1 μM, B indicates 1 µM≤IC50≤20 μM, and C indicates IC50>20 μM.

Mino cells = assay: Inhibition of cell proliferation of Mino cells (MTS, 3 days); details: Homo sapiens, MINO
Protocol: Mino cells were cultured with RPMI-1640 medium supplemented with 15% fetal bovine serum, and collected. The cell concentration was diluted according to a 3-day treatment period, and 90 μL of the cell suspension was added to each well of a 96-well plate, resulting in 8000 cells per well. For control wells, 10 μL of DMSO at a final concentration of 0.2% was added. The compounds were diluted in a 5-fold gradient from a 10 mM stock solution, and 10 μL of each compound solution was added to the experimental wells (with a final DMSO concentration of 0.2%). The cells were incubated in a 37° C., 5% CO2 incubator for 3 days. After preparing the reaction mixture using the MTS reagent kit (Promega, G5430), 20 μL was added to each well, and the cells were incubated for 3-4 hours at 37° C., 5% CO2.
The absorbance at 490 nm was read using a microplate reader, with the absorbance at 690 nm used as the background. The final raw data was calculated as OD490-OD690. The inhibition rate of the compounds was calculated using the formula: Inhibition rate=(OD DMSO−OD compound)/(OD DMSO−OD blank)×100%. The IC50 values for cell proliferation inhibition of the compounds were fitted using GraphPad Prism 5.0. The experiment was repeated three times, with the average and standard deviation calculated from three parallel experiments each time.

MM.1S cells = assay: Effect of the compound on MM.1S cell proliferation (MTS, 7 days); details: Homo sapiens, MM1.S
Protocol: MM.1S cells were cultured in 1640 medium supplemented with 10% fetal bovine serum, then collected and diluted to the desired cell concentration after 7 days of treatment. A total of 180 μL of cell suspension was added to each well in a 96-well cell plate, ensuring 20,000 cells per well. For the control group, 20 μL of 0.2% DMSO was added to each well. Compounds were diluted in a 5-step gradient from a 10 mM stock solution, and 20 μL of each dilution was added to the compound-containing wells (with a final DMSO concentration of 0.2%). The cells were incubated in a 37° C., 5% CO2 incubator for 7 days. Afterward, 20 μL of the MTS reagent (Promega, G5430) was added to each well, followed by incubation for 3-4 hours in a 37° C., 5% CO2 incubator. Absorbance at 490 nm was measured using a microplate reader, with 690 nm absorbance as the background. The final raw data was calculated as OD490-OD690. The compound inhibition rate was calculated using the formula: […]
The IC50 for the compound's proliferative inhibition was fitted using GraphPad Prism 5.0. The experiment was repeated three times, and the average and standard deviation were calculated using three parallel experiments per trial.

[1] = MV4-11, positive compounds, read-out: IC50 in MV-4-11 acute leukemia cells
[2] = 72 h, 3 days, MTS, Table 2, read-out: Mino Cells Inhibition Activity IC50
[3] = 168 h, 7 days, MTS, Table 1, read-out: MM.1S Cells Inhibition Activity IC50
[4] = MV4-11, 168 h, 7 days, MTS, Table 3, read-out: MV-4-11 Cells Inhibition Activity IC50
[5] = Table 4, read-out: Inhibitory Activity of Compounds on Cell Proliferation Mino IC50
[6] = Table 4, read-out: Inhibitory Activity of Compounds on Cell Proliferation MM.1S IC50
[7] = MV4-11, Table 4, values in nM, read-out: Inhibitory Activity of Compounds on Cell Proliferation MV-4-11 IC50

IC50 (MV-4-11 cells; [1]) | IC50 (MM.1S cells; [3]) | IC50 (MV-4-11 cells; [4]) | IC50 (MM.1S cells; [6]) | IC50 (MV-4-11 cells; [7]) | SMILES | IC50 (Mino cells; [2]) | IC50 (Mino cells; [5])
> 20000 nM |  |  |  |  | Cc1nc2cccc(N)c2c(=O)n1C1CCC(=O)NC1=O (stereo not drawn) [CC-122, reference compound] |  | 
> 20000 nM | < 15 nM | > 20000 nM |  |  | O=C1CCC(N2Cc3c(OCc4ccc(CN5CCOCC5)cc4)cccc3C2=O)C(=O)N1 (stereo not drawn) [CC-220, reference compound] | 60 to 120 nM | 
 | < 15 nM | 1000 to 20000 nM |  |  | CC1(C(=O)N2CCC(c3ncc(CNc4cccc5c4C(=O)N(C4CCC(=O)NC4=O)C5=O)o3)CC2)CCC1 (stereo not drawn) [Example 1] | < 60 nM | 
 | < 15 nM | < 1000 nM |  |  | O=C1CCC(N2C(=O)c3cccc(NCc4cnc(C5CCN(C(=O)C6(c7ccc(F)cc7)CCC6)CC5)o4)c3C2=O)C(=O)N1 (stereo not drawn) [Example 2] | < 60 nM | 
 | < 15 nM | 1000 to 20000 nM |  |  | O=C1CCC(N2C(=O)c3cccc(NCc4cnc(C5CCN(C(=O)C67CC8CC(CC(C8)C6)C7)CC5)o4)c3C2=O)C(=O)N1 (stereo not drawn) [Example 3, 4-((2-(1-((3r,5r,7r)-adamantane-1-carbonyl)piperidin-4-yl)oxazol-5-yl)methyl)amino)-2-(2,6-dioxopiperidin-3-yl)isoindoline-1,3-dione] | < 60 nM | 
 | < 15 nM | < 1000 nM |  |  | O=C1CCC(N2C(=O)c3cccc(NCc4cnc(C5CCN(C(=O)C6(C(F)(F)F)CCC6)CC5)o4)c3C2=O)C(=O)N1 (stereo not drawn) [Example 4] | < 60 nM | 
 | 15 to 30 nM | 1000 to 20000 nM |  |  | O=C1CCC(N2C(=O)c3cccc(NCc4cnc(C5CCN(C(=O)c6ccc(F)cc6)CC5)o4)c3C2=O)C(=O)N1 (stereo not drawn) [Example 5] | > 120 nM | 
 | 30 to 150 nM | 1000 to 20000 nM |  |  | N#Cc1ccc(C(=O)N2CCC(c3ncc(CNc4cccc5c4C(=O)N(C4CCC(=O)NC4=O)C5=O)o3)CC2)c(F)c1 (stereo not drawn) [Example 6, 4-(4-(5-(((2-(2,6-dioxopiperidin-3-yl)-1,3-dioxoisindole-4-yl)amino)methyl)oxazol-2-yl)piperidine-1-carbonyl)-3-fluorobenzonitrile] | 60 to 120 nM | 
 | 15 to 30 nM | 1000 to 20000 nM |  |  | O=C1CCC(N2C(=O)c3cccc(NCc4cnc(C5CCN(C(=O)c6ccc(OC(F)(F)F)cc6)CC5)o4)c3C2=O)C(=O)N1 (stereo not drawn) [Example 7] | > 120 nM | 
 | 15 to 30 nM | < 1000 nM |  |  | O=C1CCC(N2C(=O)c3cccc(NCc4cnc(C5CCN(C(=O)c6ccc(Cl)cc6Cl)CC5)o4)c3C2=O)C(=O)N1 (stereo not drawn) [Example 8] | 60 to 120 nM | 
 | < 15 nM | < 1000 nM | 8.8 nM | 782 nM | CC(C)(C)C(=O)N1CCC(c2ncc(CNc3cccc4c3C(=O)N(C3CCC(=O)NC3=O)C4=O)o2)CC1 (stereo not drawn) [Example 9] | > 120 nM | 141 nM
 | < 15 nM | 1000 to 20000 nM |  |  | CC1(C(=O)N2CCC(c3ncc(CNc4cccc5c4C(=O)N(C4CCC(=O)NC4=O)C5=O)o3)CC2)CCCCC1 (stereo not drawn) [Example 10] | 60 to 120 nM | 
 | < 15 nM | < 1000 nM |  |  | O=C1CCC(N2C(=O)c3cccc(NCc4cnc(C5CCN(C(=O)CC67CC8CC(CC(C8)C6)C7)CC5)o4)c3C2=O)C(=O)N1 (stereo not drawn) [Example 11] | < 60 nM | 
 | 30 to 150 nM | < 1000 nM |  |  | O=C1CCC(N2C(=O)c3cccc(NCc4cnc(C5CCN(Cc6ccc(F)cc6)CC5)o4)c3C2=O)C(=O)N1 (stereo not drawn) [Example 12] | > 120 nM | 
 | 30 to 150 nM | 1000 to 20000 nM |  |  | N#Cc1ccc(CN2CCC(c3ncc(CNc4cccc5c4C(=O)N(C4CCC(=O)NC4=O)C5=O)o3)CC2)c(F)c1 (stereo not drawn) [Example 13] | > 120 nM | 
 | 15 to 30 nM | < 1000 nM |  |  | O=C1CCC(N2C(=O)c3cccc(NCc4cnc(C5CCN(Cc6ccc(OC(F)(F)F)cc6)CC5)o4)c3C2=O)C(=O)N1 (stereo not drawn) [Example 14] | 60 to 120 nM | 

IC50 (MV-4-11 cells; [1]) | IC50 (MM.1S cells; [3]) | IC50 (MV-4-11 cells; [4]) | IC50 (MM.1S cells; [6]) | IC50 (MV-4-11 cells; [7]) | SMILES | IC50 (Mino cells; [2]) | IC50 (Mino cells; [5])
 | < 15 nM | < 1000 nM | 6.4 nM | 750 nM | O=C1CCC(N2C(=O)c3cccc(NCc4cnc(-c5ccc(OC(F)(F)F)cc5)o4)c3C2=O)C(=O)N1 (stereo not drawn) [Example 15] | 60 to 120 nM | 60.5 nM
 | < 15 nM | < 1000 nM |  |  | COc1ccc(-c2ncc(CNc3cccc4c3C(=O)N(C3CCC(=O)NC3=O)C4=O)o2)cc1 (stereo not drawn) [Example 16] | < 60 nM | 
 | < 15 nM | 1000 to 20000 nM |  |  | COc1cccc(-c2ncc(CNc3cccc4c3C(=O)N(C3CCC(=O)NC3=O)C4=O)o2)c1 (stereo not drawn) [Example 17] | 60 to 120 nM | 
 | < 15 nM | < 1000 nM |  |  | O=C1CCC(N2C(=O)c3cccc(NCc4cnc(-c5cccc(-c6ccccc6)c5)o4)c3C2=O)C(=O)N1 (stereo not drawn) [Example 18] | < 60 nM | 
 | < 15 nM | < 1000 nM |  |  | Cc1ccc(-c2ncc(CNc3cccc4c3C(=O)N(C3CCC(=O)NC3=O)C4=O)o2)cc1 (stereo not drawn) [Example 19] | < 60 nM | 
 | < 15 nM | < 1000 nM |  |  | Cc1cccc(-c2ncc(CNc3cccc4c3C(=O)N(C3CCC(=O)NC3=O)C4=O)o2)c1 (stereo not drawn) [Example 20] | < 60 nM | 
 | < 15 nM | 1000 to 20000 nM |  |  | Cc1ccccc1-c1ncc(CNc2cccc3c2C(=O)N(C2CCC(=O)NC2=O)C3=O)o1 (stereo not drawn) [Example 21] | > 120 nM | 
 | < 15 nM | < 1000 nM |  |  | O=C1CCC(N2C(=O)c3cccc(NCc4cnc(-c5ccc(Br)cc5)o4)c3C2=O)C(=O)N1 (stereo not drawn) [Example 23] | > 120 nM | 
 | 15 to 30 nM | < 1000 nM |  |  | O=C1CCC(N2C(=O)c3cccc(NCc4cnc(-c5cccc(OC(F)(F)F)c5)o4)c3C2=O)C(=O)N1 (stereo not drawn) [Example 55] |  | 
 | 30 to 150 nM | 1000 to 20000 nM |  |  | O=C1CCC(N2C(=O)c3cccc(NCc4cnc(-c5ccccc5OC(F)(F)F)o4)c3C2=O)C(=O)N1 (stereo not drawn) [Example 56] |  | 
 |  | < 1000 nM |  |  | O=C1CCC(N2C(=O)c3cccc(NCc4cnc(-c5cccc(Cl)c5)s4)c3C2=O)C(=O)N1 (stereo not drawn) [Example 68, 4-(((2-(3-Chlorophenyl)thiazol-5-yl)methyl)amino)-2-(2,6-Dioxopiperidin-3-yl)isoindolin-1,3-dione] | > 120 nM | 
 | 15 to 30 nM | 1000 to 20000 nM |  |  | O=C1CCC(N2C(=O)c3cccc(NCc4cnc(-c5cccc(F)c5)o4)c3C2=O)C(=O)N1 (stereo not drawn) [Example 70, 2-(2,6-Dioxopiperidin-3-yl)-4-(((2-(3-Fluorophenyl)oxazol-5-yl)methyl)amino)isoindolin-1,3-dione] |  | 
 |  | < 1000 nM |  |  | O=C1CCC(N2C(=O)c3cccc(NCc4cnc(-c5cc(Cl)cc(Cl)c5)o4)c3C2=O)C(=O)N1 (stereo not drawn) [Example 75, 4-(((2-(3,5-Dichlorophenyl)oxazol-5-yl)methyl)amino)-2-(2,6-Dioxopiperidin-3-yl)isoindolin-1,3-dione] | > 120 nM | 
 |  | 1000 to 20000 nM |  |  | O=C1CCC(N2C(=O)c3cccc(NCc4cnc(-c5ccccc5OC5COC5)o4)c3C2=O)C(=O)N1 (stereo not drawn) [Example 101] |  | 
 | 30 to 150 nM | 1000 to 20000 nM |  |  | O=C1CCC(N2C(=O)c3cccc(NCc4cnc(-c5ccc(OC6COC6)cc5)s4)c3C2=O)C(=O)N1 (stereo not drawn) [Example 102] |  | 

From patent publication US20250270202A1, “SUBSTITUTED 4-AMINOISOINDOLINE COMPOUND, PREPARATION METHOD THEREFOR, PHARMACEUTICAL COMPOSITION THEREOF, AND USE THEREOF” (SHANGHAI INSTITUTE OF MATERIA MEDICA, CHINESE ACADEMY OF …, priority 2022, published 2025)
